The subject of assay [1] is MDA-MB-231 cells. Kind of assay: Cell viability assay (Prestoblue) in MDA-MB-231 cells expressing GFP, GFP-Mena or GFP-Mena^INV. As to conditions: 72 h of treatment with Taxol at 100 nM, 1 μm or 10 μM.
Description: Cell viability assays were performed in a 96-well plate. 5,000 cells were plated per well and treated with drug 24 hours later. Cell viability was assayed 72 hours later using the PrestoBlue Cell Viability Reagent (Life Technologies), according to manufacturer's protocol. Fluorescence was measured and normalized to cells exposed to vehicle. The activity area was calculated from doseresponse plots using Matlab. All measurements were repeated in triplicate.
The test system of assay [2] is human breast cancer cell lines. Description: Cell viability (Taxol/paclitaxel efficacy) across a panel of breast cancer cell lines versus endogenous Mena expression. As to conditions: 9 breast cancer cell lines, 72 h treatment. The format is cell-based. An excerpt: Endogenous levels of Mena in breast cancer cell lines correlate with their resistance to Taxol treatment. Initial experiments relied on ectopic expression in a single cell line, we examined a panel breast cancer cell lines with differing levels of endogenous Mena expression for sensitivity to Taxol. […] Essentially, low endogenous Mena correlates with low resistance/reduced viability in Taxol treated cells, while high endogenous Mena correlates with high resistance/viability in Taxol treated cells (FIG. 1F).
Cell viability assay. […] All measurements were repeated in triplicate.
MENA and MENA^INV are associated with increased survival during paclitaxel treatment in vitro. Whether endogenous MENA and MENA^INV expression levels were associated with paclitaxel resistance was examined. MENA and MENA^INV were determined to be widely expressed in all main breast cancer subtypes, as measured by mRNA from TCGA samples, as well as at the protein level by immunohistochemistry (FIGS. 28A, 28B, 28C), with slightly higher expression in patients with Her2+ breast cancer. […] Under the conditions we used, MENA11a co-migrates with the 80 kDa MENA, thus the intensity of the measured the 80 kDa MENA, detected with an antibody known to recognize all MENA isoforms, represents the total amount of 80 kDa MENA plus MENA11a in the cell lines that express both isoforms. […]

The subject of assay [3] is MDA-MB-231 xenograft tumors. Kind of assay: Multiphoton intravital imaging of motile tumor cells. The assay is classed as in vivo, mouse. As for the experimental part: Intravital imaging. Intravital multiphoton imaging was performed as described previously (Oudin M J, et al. Tumor cell-driven extracellular matrix remodeling enables haptotaxis during metastatic progression. Cancer Discov. 2016; Available from: www.ncbi.nlm.nih.gov/pubmed/26811325) using a 25×1.05 NA water immersion objective with correction lens. After exposing the tumor with a skin flap surgery, 30 minute movies were captured. The number of motile cells in each field of view were count in ten 30 minute time-lapse movies using ImageJ. Motile cells were cells who show any displacement of the nucleus and cell protrusion activity. Data were pooled from 2-4 mice per tumor group, with 4-10 fields imaged per mouse.
MENA and MENA^INV drive increased cell motility and metastasis during tumor progression. Therefore, whether MENA isoform expression impacts cell migration and dissemination after paclitaxel treatment was examined.

Assay [4] deals with microtubules (MT). Description: Immunofluorescence ratio of Glu-MT (stable) to Tyr-MT (dynamic). The format is cell-based, human. As for the experimental part: Immunofluorescence. Glass bottom dishes (Mattek) were coated with Collagen at 0.1 mg/mL diluted in PBS and 50 μg/mL FN for 1 hour at 37° C. Cells were plated for 1 hour, and then treated with paclitaxel alone or in combination with MEKi for 24 hours. Cells were fixed for 20 minutes in 4% paraformaldehyde in PHEM buffer with 0.1% Gluteraldehyde, and then quenched with sodium borohydrate for 5 minutes. Cells were blocked with 2% BSA in TBS-0.1%TritonX-100 for 30 minutes, and incubated with primary antibodies and then secondary antibodies for 1 hour each, at room temperature. Z series of images were taken on an Applied Precision DeltaVision microscope using Softworx acquisition, an Olympus 60×1.4 NA plan apo objective and a Photometrics CoolSNAP HQ camera. Images were deconvolved using Deltavision Softworx software and objective specific point spread function. Images were analyzed with ImageJ, where the whole cell intensity levels of Tyr- or Glu-MT was measured. Images are pooled from at least 3 independent experiments.
Paclitaxel promotes cell death by increasing the stability of MTs, and pathways driving increased MT dynamics are known to promote resistance to taxanes. Therefore, MT structure and dynamics in MENA isoform expressing cells was examined during paclitaxel treatment. […] Post-translational modification of MTs can regulate their dynamics, and antibodies that detect such modifications can be used to infer the relative dynamics of MT populations; in particular, MT tyrosination indicates a dynamic MT state, while de-tyrosination of MTs is associated with increased stability. The relative abundance of stable (Glu-MT) vs. dynamic (Tyr-MT) MTs was measured in individual cells by immunofluorescence with anti-Glu-MT and anti-Tyr-MT antibodies (FIGS. 37A, 37B).
(§1) The MAPK signaling cascade is among the key pathways known to interact with MTs. Both ERK1/2 interact with MTs; MT stabilization by paclitaxel increases ERK phosphorylation and, in turn, ERK pathway activation increases MT dynamics.

For assay [5], the system named is ERK, Akt. Kind of assay: Western blot for pERK Y204, ERK, pAkt473 and Akt. The format is cell-based, human. The procedure: Western blot. Cells were lysed in 25 mM Tris, 150 mM NaCl, 10% glycerol, 1% NP 40 and […] EDTA with a protease Mini-complete protease inhibitors (Roche) and a phosphatase inhibitor cocktail (PhosSTOP, Roche) at 4° C. for 20 minutes. Protein lysates were separated by SDS-PAGE, transferred to a nitrocellulose membrane and blocked with Odyssey Blocking Buffer (LiCor). Membranes were incubated with primary antibody overnight at 4° C. and Licor secondary antibodies at room temperature for 1 hour. Protein level intensity was measured with Image J.
as §1
On the technique in general: Immunoblotting shows a protein as a band on a membrane.

[6] abbreviates: 72 hours of paclitaxel treatment, all three cell lines.

SMILES strings stand for the structures.

Regarding `CC(=O)O[C@H]1C(=O)[C@@]2(C)[C@H]([C@H](OC(=O)c3ccccc3)[C@]3(O)C[C@H](OC(=O)[C@H](O)[C@@H](NC(=O)c4ccccc4)c4ccccc4)C(C)=C1C3(C)C)[C@]1(OC(C)=O)CO[C@@H]1C[C@@H]2O` [paclitaxel], in assay [1], the “fraction of viable GFP-Mena or GFP-Mena^INV cells higher than fraction of viable GFP (Control) cells” value is “at least 65%”. For the same compound, in assay [2], the “correlation between drug efficacy (cell survival) and endogenous Mena expression” value is recorded as “significant inverse correlation”. Moreover, in assay [2] (listed as Taxol), the “correlation between drug efficacy (cell survival) and endogenous Mena expression” value is on record as “highly significant anti-correlation”. In addition, the “number of cells moving within tumors” value in assay [3] (231-Control tumors) was “significantly reduced”. Moreover, in assay [3] (231-MENA and 231-MENA^INV tumors), the “motility of tumor cells in vivo” value is listed as “not affected”. Also, the “relative ratio of stable (Glu-MT) to dynamic (Tyr-MT) MTs” value in assay [4] (231-Control cells, 10 nM paclitaxel 24 hours) is given as “significant increase”. In addition, the “relative levels of stable to dynamic MTs” value in assay [4] (231-MENA and 231-MENA^INV cells, 10 nM paclitaxel 24 hours) is given as “no change”. Also, the “stable MTs relative to dynamic MTs, either drug alone” value in assay [4] (231-MENA^INV cells, single drug, 24 hours) is listed as “had no effect”. The “total ERK levels” value in assay [5] (72 hours of paclitaxel treatment) is listed as “unchanged”. In addition, in assay [5] (72 hours of paclitaxel treatment (10 or 100 nM)), the “pERK Y204 levels” value was 231-MENA and 231-MENA^INV cells had higher levels of pERK Y204 relative to 231-Control cells. Besides, in assay [5] (setting [6]), the pAkt473 levels entry is on record as “decreased pAkt473 levels equally” and the “total Akt levels” value is on record as “without significantly changing”.

For the origin of these results see patent US20170168056A1, “METHODS AND COMPOSITIONS FOR DETECTING AND MODULATING CANCER CELLS” (Massachusetts Institute of Technology, priority 2015, published 2017).
